Measurements as given in PubChem BioAssay (NCI).
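Method: 48-hour compound exposure of cells in 96-well plates, five concentrations, linear interpolation of endpoints. GI50: concentration for 50% inhibition of growth. TGI is the concentration that stops growth completely.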

Legend:
Experiment in all cases: NCI tumour cell line growth inhibition, 48 h
SF-268 CNS = system: SF-268 CNS
SK-MEL-28 melanoma = system: SK-MEL-28 melanoma
NCI-H522 lung = system: NCI-H522 lung
HCT-116 colon = system: HCT-116 colon
OVCAR-4 ovarian = system: OVCAR-4 ovarian
SW-620 colon = system: SW-620 colon
SNB-19 CNS = system: SNB-19 CNS
MDA-MB-435 = system: MDA-MB-435
HT29 colon = system: HT29 colon
MOLT-4 leukemia = system: MOLT-4 leukemia

SMILES | TGI (SF-268 CNS) [µM] | TGI (SK-MEL-28 melanoma) [µM] | TGI (NCI-H522 lung) [µM] | TGI (HCT-116 colon) [µM] | TGI (OVCAR-4 ovarian) [µM] | TGI (SW-620 colon) [µM] | TGI (SNB-19 CNS) [µM] | TGI (MDA-MB-435) [µM] | TGI (HT29 colon) [µM] | TGI (MOLT-4 leukemia) [µM] | GI50 (SF-268 CNS) [µM] | GI50 (SK-MEL-28 melanoma) [µM] | GI50 (NCI-H522 lung) [µM] | GI50 (HCT-116 colon) [µM] | GI50 (OVCAR-4 ovarian) [µM] | GI50 (SW-620 colon) [µM] | GI50 (SNB-19 CNS) [µM] | GI50 (MDA-MB-435) [µM] | GI50 (HT29 colon) [µM] | GI50 (MOLT-4 leukemia) [µM]
O=c1[nH]cc(/C=N\Nc2ccccc2)c(=O)[nH]1 | > 100 | > 100 | > 100 | > 100 | > 100 | > 100 | > 100 | > 100 | > 100 | – | – | – | – | – | – | – | – | – | – | –
O=C(O)C1=C(C(=O)Nc2ccccc2)C2C=CC1C2 (stereo unspecified) | > 100 | > 100 | – | > 100 | > 100 | > 100 | > 100 | – | > 100 | > 100 | – | – | – | – | – | – | – | – | – | –
CN(C)c1ncnc2c1Cc1ccccc1C(=O)N2C | > 100 | > 100 | > 100 | > 100 | > 100 | > 100 | > 100 | – | > 100 | > 100 | – | – | – | – | – | – | – | – | – | –
O=C(Cc1nc2ccccc2s1)Nc1ccc(Cl)cc1 | > 100 | > 100 | > 100 | > 100 | > 100 | > 100 | > 100 | – | > 100 | > 100 | – | – | – | – | – | – | – | – | – | –
COc1cccc(NC(=O)C(C)(C)C)c1C=O | > 100 | > 100 | > 100 | > 100 | > 100 | > 100 | > 100 | – | > 100 | > 100 | – | – | – | – | – | – | – | – | – | –
O=Nc1ccc(O)c2ccccc12 | 5.87 | 6.12 | 3.48 | 2.46 | 2.44 | 3.6 | 6.65 | 1.1 | 5.71 | – | 2.29 | 2.59 | 1.6 | 1.17 | 1.17 | 1.82 | 2.31 | 0.33 | 1.86 | –
COc1cc(Br)c(CC2(C#N)c3ccccc3C3C(N2C(=O)c2ccccc2)C3(Cl)Cl)cc1OC (stereo unspecified) | > 65.5 | > 65.5 | > 65.5 | > 65.5 | – | > 65.5 | > 65.5 | – | > 65.5 | – | – | – | – | – | – | – | – | – | – | –
CCSC(SCC)c1cc2c(cc1Br)OCO2 | > 100 | > 100 | > 100 | 82.6 | > 100 | > 100 | > 100 | – | 44.8 | 42.2 | – | – | – | – | – | – | – | – | – | –
CC(C)CC1C(=O)N2CCC[C@H]2C2(O)O[C@](NC(=O)C3C=C4c5cccc6[nH]c(Br)c(c56)C[C@H]4N(C)C3)(C(C)C)C(=O)N12 (stereo partly specified) | > 100 | > 100 | – | > 100 | > 100 | > 100 | > 100 | > 100 | > 100 | > 100 | 9.02 | – | – | – | 5.78 | 9.23 | – | 16.7 | – | 5.06
c1ccc(N=c2snc3scc(-c4ccccc4)n23)cc1 | > 100 | > 100 | 38.4 | – | > 100 | > 100 | > 100 | – | > 100 | 79.6 | – | – | – | – | – | – | – | – | – | –
CC1=C(C(=O)Nc2ccccc2)C(c2ccc([N+](=O)[O-])cc2)C(C(=O)Nc2ccccc2)=C(C)N1 | 57.9 | 88.5 | 63.8 | 37.2 | – | 38.5 | 32 | – | 41.3 | > 100 | – | – | – | – | – | – | – | – | – | –
O=C(NCCO)c1cc2c(cn1)[nH]c1ccccc12 | > 100 | > 100 | > 100 | > 100 | > 100 | > 100 | > 100 | – | > 100 | > 100 | – | – | – | – | – | – | – | – | – | –
CCN(CC)CCCC(C)Nc1cc(-c2ccc(C(F)(F)F)cc2)c(C#N)c2nc3ccccc3n12 (stereo unspecified) | 4.43 | 1.19 | – | 2.06 | 10.1 | 3.99 | 11.1 | 3.14 | 5.58 | 12.1 | 1.9 | 0.325 | – | 0.687 | 3.12 | 1.92 | 2.96 | 1.67 | 2.38 | 3.19
CCC(=O)C1(c2ccccc2)CCN(C)CC1 | > 100 | > 100 | – | > 100 | > 100 | > 100 | > 100 | – | > 100 | > 100 | – | – | – | – | – | – | – | – | – | –
Cc1ccc(-n2c3nc(=O)n(C)c(=O)c-3nc3ccccc32)cc1 | > 100 | – | 32.6 | 61.3 | 28.5 | 19.6 | 33.5 | – | 19.1 | 41.2 | – | – | – | – | – | – | – | – | – | –
O=C1OC(c2ccccc2)=N/C1=C\c1ccc2ccccc2c1 | > 100 | > 100 | > 100 | > 100 | > 100 | > 100 | > 100 | – | > 100 | > 100 | – | – | – | – | – | – | – | – | – | –

SMILES | TGI (SF-268 CNS) [µM] | TGI (SK-MEL-28 melanoma) [µM] | TGI (NCI-H522 lung) [µM] | TGI (HCT-116 colon) [µM] | TGI (OVCAR-4 ovarian) [µM] | TGI (SW-620 colon) [µM] | TGI (SNB-19 CNS) [µM] | TGI (MDA-MB-435) [µM] | TGI (HT29 colon) [µM] | TGI (MOLT-4 leukemia) [µM] | GI50 (SF-268 CNS) [µM] | GI50 (SK-MEL-28 melanoma) [µM] | GI50 (NCI-H522 lung) [µM] | GI50 (HCT-116 colon) [µM] | GI50 (OVCAR-4 ovarian) [µM] | GI50 (SW-620 colon) [µM] | GI50 (SNB-19 CNS) [µM] | GI50 (MDA-MB-435) [µM] | GI50 (HT29 colon) [µM] | GI50 (MOLT-4 leukemia) [µM]
Nc1nc(Cl)cc(NCCCCCNc2cc(Cl)nc(N)n2)n1 | > 100 | > 100 | > 100 | > 100 | > 100 | > 100 | > 100 | – | > 100 | > 100 | – | – | – | – | – | – | – | – | – | –
COc1ccc(CCN2CCCN3C2=Nc2ccccc2S3(=O)=O)cc1 | > 100 | > 100 | 8.86 | 16.4 | > 100 | > 100 | > 100 | – | 17.5 | > 100 | 2.06 | 0.805 | 0.278 | 0.444 | 0.912 | 0.381 | 0.882 | – | 0.323 | 0.464
CCOC(=O)Cc1nc2ccccc2s1 | 39.2 | 28.2 | 41.1 | 39 | > 10 | 34.3 | > 100 | – | 37.1 | 65.9 | – | – | – | – | – | – | – | – | – | –
Cc1ccc(S(=O)(=O)Oc2ccc([N+](=O)[O-])cc2[N+](=O)[O-])cc1 | 15 | 26.4 | – | 13.2 | 20.4 | 24.9 | 38.1 | 10.5 | 58.7 | 55.1 | 3.64 | 13 | – | 3.16 | 7.51 | 4.04 | 17.2 | 3.1 | 3.63 | 3.82
COc1ccccc1/C=C/C(=O)c1c(O)cc2occc2c1OC | > 100 | > 100 | > 100 | > 100 | > 100 | > 100 | > 100 | > 100 | > 100 | – | 22.2 | > 100 | > 100 | 40.4 | > 100 | > 100 | 30.8 | 5.96 | > 100 | –
COc1ccc2c(c1O)C(=O)C(CCC(=O)O)CC2 (stereo unspecified) | – | > 100 | – | > 100 | > 100 | > 100 | > 100 | – | > 100 | > 100 | – | – | – | – | – | – | – | – | – | –
CC(=O)[O-].CC(=O)[O-].O=C(N/N=C/c1cc(Cl)cc(Cl)c1O)c1ccncc1.[Ni+2] | > 100 | > 100 | > 100 | > 100 | – | 83.5 | > 100 | – | > 100 | > 100 | – | – | – | – | – | – | – | – | – | –
C=CCCCn1ccc2ccccc21 | > 100 | > 100 | > 100 | > 100 | – | > 100 | > 100 | – | > 100 | > 100 | – | – | – | – | – | – | – | – | – | –
CCCCCCCCCCCCCCCCOCC(CN(C)CCN(C)C)OCCCCCCCCCCCCCCCC (stereo unspecified) | > 100 | > 100 | > 100 | > 100 | > 100 | > 100 | > 100 | – | > 100 | > 100 | – | – | – | – | – | – | – | – | – | –
C[N+](C)(C)CC(=O)N/N=C(\CCC(=O)NCCc1ccccc1)CC(=O)c1ccccc1 | > 100 | – | > 100 | > 100 | > 100 | > 100 | > 100 | – | > 100 | > 100 | – | – | – | – | – | – | – | – | – | –
C#Cc1c(C)c(/C=C/C(C)=C/C=C/C(C)=C/C(=O)OC)n(C)c1C | > 100 | > 100 | > 100 | > 100 | > 100 | > 100 | > 100 | – | > 100 | > 100 | – | – | – | – | – | – | – | – | – | –
Cc1ccc2c(c1)C(C)Cc1c(ncnc1-n1cnc3cc(C)ccc31)N2C (stereo unspecified) | 12.3 | 15.8 | 0.0784 | 5.21 | 19 | 15.9 | 21.9 | – | 0.195 | 13.8 | 0.045 | 0.0743 | 0.026 | 0.0316 | 0.0729 | 0.0417 | 0.0522 | – | 0.0302 | 0.0407
Cc1nnc(N=Nc2c(O)[nH]c3c(Cl)cc(Cl)cc23)n1N | > 100 | > 100 | > 100 | > 100 | > 100 | > 100 | > 100 | – | > 100 | > 100 | – | – | – | – | – | – | – | – | – | –
O=C1Nc2cc(Cl)ccc2N=CC1NC(=O)C(c1ccccc1)c1ccccc1Cl (stereo unspecified) | > 100 | > 100 | > 100 | > 100 | > 100 | > 100 | > 100 | – | > 100 | > 100 | – | – | – | – | – | – | – | – | – | –
COCc1c(CO)cnc(C)c1OC1OC(CO)C(O)C(O)C1O (stereo unspecified) | > 100 | > 100 | > 100 | > 100 | > 100 | > 100 | > 100 | – | > 100 | > 100 | – | – | – | – | – | – | – | – | – | –
